According to article PMC9490041, “Determinants of affinity, specificity, and phase separation in a supramodule from Post-synaptic density protein 95” (iScience, 2022):
Read-outs that look alike come from different tables or passages of the source.

Legend:
PSG F325A (PSD-95) = assay: FP displacement (competition) of FITC-15 AA CRIPT by library peptide, IC50 and Ki; conditions: for IC50: read-out: IC50 (µM), PSG F325A
PSG G322A G335A (PSD-95) [1] = assay: as above; conditions: for IC50: read-out: IC50 (µM), PSG G322A G335A; for Ki: read-out: Ki (µM), PSG G322A G335A
PSG (PSD-95) [2] = assay: as above; conditions: for IC50: read-out: IC50 (µM), PSG
PSG G335A (PSD-95) = assay: as above; conditions: for IC50: read-out: IC50 (µM), PSG G335A; for Ki: read-out: Ki (µM), PSG G335A
PSG G322A (PSD-95) = assay: as above; conditions: for IC50: read-out: IC50 (µM), PSG G322A; for Ki: read-out: Ki (µM), PSG G322A
PSG (PSD-95) [3] = assay: FP saturation binding of FITC-15 AA CRIPT probe; conditions: read-out: Kd probe, 5 nM FITC-15 AA CRIPT, room temperature, PSG WT
PSG G322A G335A (PSD-95) [4] = assay: FP saturation binding of FITC-15 AA CRIPT probe; conditions: read-out: Kd probe, 5 nM FITC-15 AA CRIPT, room temperature
PDZ1-2 (PSD-95) = assay: Isothermal titration calorimetry; type: binding; conditions: ITC
PDZ3 (PSD-95) = PDZ3 (PSD-95) (Homo sapiens, UniProt P78352); assay: FP displacement (competition) of FITC-15 AA CRIPT by library peptide, IC50 and Ki
[5] = FP displacement of FITC-15 AA CRIPT probe by acetylated PSD library peptide
[6] = FP displacement of FITC-15 AA CRIPT probe by acetylated PSD library peptide (P-13 to P0 plus extra N-terminal Y)
[7] = FP displacement of 5 nM FITC-15 AA CRIPT by non-labeled acetylated peptide, room temperature, Ki from IC50, technical triplicates, PSG
[8] = read-out: Ki (µM), PSG, FP displacement of FITC-15 AA CRIPT probe by acetylated PSD library peptide
[9] = FP displacement of FITC-15 AA CRIPT probe by PSD library peptide, protein PSG G322A G335A
[10] = FP displacement of FITC-15 AA CRIPT probe by PSD library peptide, protein PSG (wild type)
[11] = read-out: Ki (µM), PSG, FP displacement of FITC-15 AA CRIPT probe by PSD library peptide, protein PSG (wild type)
[12] = FP displacement of FITC-15 AA CRIPT probe by PSD library peptide, protein PSG G335A
[13] = FP displacement of FITC-15 AA CRIPT probe by PSD library peptide, protein PSG G322A
[14] = Ki (µM), PDZ3, FP displacement of FITC-15 AA CRIPT probe by acetylated PSD library peptide
[15] = Ki, FP displacement of 5 nM FITC-15 AA CRIPT by non-labeled acetylated peptide, room temperature, Ki from IC50, technical triplicates, PDZ3

Sequence of PDZ3 (PSD-95) (P78352 313-393 limits assumed): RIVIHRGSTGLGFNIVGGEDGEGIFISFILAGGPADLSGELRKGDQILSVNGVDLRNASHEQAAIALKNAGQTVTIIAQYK

Molecule	IC50 (PSG G322A G335A (PSD-95) [1]; [6]) [µM]	Ki (PSG G322A G335A (PSD-95) [1]; [5]) [µM]	Ki (PSG (PSD-95) [2]; [7]) [µM]	IC50 (PSG (PSD-95) [2]; [5]) [µM]	Ki (PSG (PSD-95) [2]; [8]) [µM]	IC50 (PSG G335A (PSD-95); [5]) [µM]	Ki (PSG G335A (PSD-95); [5]) [µM]	Ki (PSG G322A (PSD-95); [5]) [µM]	Ki (PDZ3 (PSD-95); [15]) [µM]	other results
CC[C@H](C)[C@H](NC(=O)[C@H](CCCCN)NC(=O)[C@@H]1CCCN1C(=O)[C@H](CC(C)C)NC(=O)[C@H](CCCNC(=N)N)NC(=O)[C@H](Cc1c[nH]cn1)NC(=O)[C@H](CO)NC(=O)CNC(=O)[C@H](CC(=O)O)NC(=O)[C@H](Cc1ccc(O)cc1)NC(C)=O)C(=O)N[C@@H](CCCCN)C(=O)N[C@@H](CCC(=O)O)C(=O)N[C@H](C(=O)N[C@H](C(=O)N[C@H](C(=O)O)C(C)C)[C@@H](C)O)[C@@H](C)O [FRPD4]	–	–	< 75	–	–	–	–	–	–	IC50 (PSG F325A (PSD-95); FP displacement of FITC-15 AA CRIPT probe by PSD library peptide, protein PSG F325A): 18 µM; Ki (PSG F325A (PSD-95); read-out: Ki (µM), PSG F325A, FP displacement of FITC-15 AA CRIPT probe by PSD library peptide, protein PSG F325A): 9 µM; IC50 (PSG G322A G335A (PSD-95) [1]; [9]): 2.47 µM; Ki (PSG G322A G335A (PSD-95) [1]; [9]): 0.777 µM; IC50 (PSG (PSD-95) [2]; [10]): 6 µM; Ki (PSG (PSD-95) [2]; [11]): 2.43 µM; IC50 (PSG G335A (PSD-95); [12]): 2.55 µM; Ki (PSG G335A (PSD-95); [12]): 0.753 µM; IC50 (PSG G322A (PSD-95); [13]): 3.4 µM; Ki (PSG G322A (PSD-95); [13]): 1.33 µM
CC(C)C[C@H](NC(=O)[C@@H](NC(=O)[C@H](CCCCN)NC(=O)[C@H](CCCCN)NC(=O)[C@H](Cc1ccc(O)cc1)NC(=S)Nc1ccc2c(c1)C(=O)OC21c2ccc(O)cc2Oc2cc(O)ccc21)C(C)C)C(=O)N[C@@H](CC(=O)O)C(=O)N[C@H](C(=O)N[C@@H](CCCCN)C(=O)N[C@@H](CC(N)=O)C(=O)N[C@@H](Cc1ccc(O)cc1)C(=O)N[C@@H](CCCCN)C(=O)N[C@@H](CCC(N)=O)C(=O)N[C@H](C(=O)N[C@@H](CO)C(=O)N[C@H](C(=O)O)C(C)C)[C@@H](C)O)[C@@H](C)O [FITC-15 AA CRIPT]	–	–	–	–	–	–	–	–	–	Kd (PSG (PSD-95) [3]): 2.2 ± 0.22 µM; Kd (PSG G322A G335A (PSD-95) [4]): 0.16 ± 0.02 µM
FL CC ADGRB1: expressed full-length coiled-coil C-terminal part of ADGRB1, residues 1,471–1,584	–	–	–	–	–	–	–	–	–	Higher affinity for PDZ1-2 in comparison with PSG WT (PDZ1-2 (PSD-95)): 3 fold
CC[C@H](C)[C@H](NC(=O)[C@H](CO)NC(=O)[C@H](CCC(N)=O)NC(=O)[C@H](CCCNC(=N)N)NC(=O)[C@H](CCCCN)NC(=O)[C@H](CO)NC(=O)[C@H](CC(=O)O)NC(=O)[C@@H]1CCCN1C(=O)[C@H](Cc1ccc(O)cc1)NC(C)=O)C(=O)N[C@@H](CC(C)C)C(=O)N[C@@H](Cc1ccccc1)C(=O)N[C@@H](CO)C(=O)N[C@H](C(=O)N[C@@H](CCC(=O)O)C(=O)N[C@H](C(=O)O)C(C)C)[C@@H](C)O [BCR]	21	7	< 75	110	46	33	12	12	< 75	Ki (PDZ3 (PSD-95); [14]): 42 µM; IC50 (PSG G322A (PSD-95); [5]): 27 µM

The next lines start with results.

IC50 (PSG G322A G335A (PSD-95) [1]; [6]) [µM]	Ki (PSG G322A G335A (PSD-95) [1]; [5]) [µM]	Ki (PSG (PSD-95) [2]; [7]) [µM]	IC50 (PSG (PSD-95) [2]; [5]) [µM]	Ki (PSG (PSD-95) [2]; [8]) [µM]	IC50 (PSG G335A (PSD-95); [5]) [µM]	Ki (PSG G335A (PSD-95); [5]) [µM]	Ki (PSG G322A (PSD-95); [5]) [µM]	Ki (PDZ3 (PSD-95); [15]) [µM]	Molecule	other results
0.922	0.243	< 75	4.24	0.913	1.12	0.24	0.4	–	CC(=O)N[C@@H](Cc1ccc(O)cc1)C(=O)N[C@@H](CCC(N)=O)C(=O)N[C@@H](CCCNC(=N)N)C(=O)NCC(=O)N[C@@H](CO)C(=O)N[C@@H](Cc1ccccc1)C(=O)N1CCC[C@H]1C(=O)N1CCC[C@H]1C(=O)N[C@@H](Cc1c[nH]c2ccccc12)C(=O)N[C@H](C(=O)N[C@@H](CCC(N)=O)C(=O)N[C@@H](CCC(N)=O)C(=O)N[C@H](C(=O)N[C@@H](CCCNC(=N)N)C(=O)N[C@H](C(=O)O)C(C)C)[C@@H](C)O)C(C)C [SYNGAP⍺1]	IC50 (PSG F325A (PSD-95); [5]): 8 µM; IC50 (PSG G322A (PSD-95); [5]): 1.31 µM
63	22	–	239	101	77	27	45	< 75	CC(=O)N[C@@H](Cc1ccc(O)cc1)C(=O)N[C@@H](CO)C(=O)N[C@@H](CC(C)C)C(=O)N[C@@H](CO)C(=O)N[C@@H](CCCCN)C(=O)N[C@@H](Cc1c[nH]cn1)C(=O)N[C@@H](CCC(=O)O)C(=O)N[C@@H](CO)C(=O)N[C@@H](CCC(=O)O)C(=O)N[C@@H](Cc1ccc(O)cc1)C(=O)N[C@@H](CC(N)=O)C(=O)N[C@H](C(=O)N[C@H](C(=O)N[C@@H](CCCNC(=N)N)C(=O)N[C@H](C(=O)O)C(C)C)[C@@H](C)O)[C@@H](C)O [NETO1]	IC50 (PDZ3 (PSD-95)): 182 µM; Ki (PDZ3 (PSD-95); [14]): 75 µM
–	–	< 75	–	–	–	–	–	< 75	CC(=O)N[C@@H](Cc1ccc(O)cc1)C(=O)N[C@@H](Cc1c[nH]cn1)C(=O)N1CCC[C@H]1C(=O)N[C@@H](Cc1c[nH]cn1)C(=O)N1CCC[C@H]1C(=O)N[C@@H](Cc1c[nH]cn1)C(=O)N1CCC[C@H]1C(=O)N[C@@H](Cc1c[nH]cn1)C(=O)N[C@@H](CO)C(=O)N[C@@H](Cc1c[nH]cn1)C(=O)N[C@@H](CO)C(=O)N[C@H](C(=O)N[C@H](C(=O)N[C@@H](CCCNC(=N)N)C(=O)N[C@H](C(=O)O)C(C)C)[C@@H](C)O)[C@@H](C)O [NLGN1]	IC50 (PSG G322A G335A (PSD-95) [1]; [9]): 22 µM; Ki (PSG G322A G335A (PSD-95) [1]; [9]): 7.42 µM; IC50 (PSG (PSD-95) [2]; [10]): 118 µM; Ki (PSG (PSD-95) [2]; [11]): 61 µM; Ki (PSG G335A (PSD-95); [12]): 9 µM; Ki (PDZ3 (PSD-95); Ki (µM), PDZ3, FP displacement of FITC-15 AA CRIPT probe by PSD library peptide, protein PDZ3): 72 µM; IC50 (PSG G322A (PSD-95); [13]): 56 µM; Ki (PSG G322A (PSD-95); [13]): 24 µM
